Results as given in US20050120398A1, “Animal model for HCV infection” (Vertex Pharmaceuticals Incorporated, priority 2003, published 2005).
Entries after “also recorded” stand apart in the source; their conditions may differ.

Legend:
[1] = test system: Wild type HCV protease; assay: Steatosis associated with HCV protease expression, Oil Red O staining of liver sections; type: in vivo, SCID mice; conditions: 300 mg/kg BID oral for the initial 3 days; 10^11 IFU/mouse; sacrificed at 7 days
Method: FIG. 25 depicts that steatosis associated with HCV protease expression can be ameliorated by HCV protease inhibitor VX-950. SCID mice were injected with 10^11 IFU/mouse of replication defective adenovirus expressing Wild type HCV protease or mutant HCV protease or SEAP alone (n=6). One group of mice (n=6) injected with adenovirus expressing wild type HCV protease were treated with 300 mg/kg BID via oral route for the initial 3 days. All the mice were sacrificed at 7 days and liver sections were stained with Oil Red O. A significant accumulation of fat in the livers of mice expressing wild type HCV protease compared to either mutant HCV protease or SEAP alone groups (20× magnification).
1. Cryostat frozen sections of livers stored at −80° C. were tested.
2. The Oil Red O Solution was prepared as follows:
a) Stock Solution Oil Red O: 500 mg Oil red O stain (Sigma O-0625) was dissolved in 100 ml isopropanol at room temperature overnight with stirring. The solution was filtered through a #1 Whatman filter. The solution was stored at room temperature protected from light.
b) Working Oil Red Solution was prepared fresh the day of assay. 40% water was mixed with 60% Oil Red O stock by inversion.
c) The working solution was kept at room temperature for 1 hour before filtering. Particulate material was filtered out using a #1 Whatman filter paper.
3. […]
13. The results were assessed by microscopy.

[2] = test system: Ad.WT.HCVpro; assay: Liver injury in mice infected with adenovirus expressing WT HCV protease; conditions: 300 mg/kg orally twice a day for the first three days; 10^11 IFU/mice; sacrificed after 7 days
[3] = test system: Ad.MT.HCVpro (mutant HCV protease fused with SEAP); assay: HCV protease mouse model: SEAP in serum, mutant HCV protease adenovirus; type: in vivo, SCID mice; conditions: 300 mg/kg orally twice a day; 10^9.5 IFU/mice Ad.MT.HCVpro; serum 24 hours post-infection

**Q.** Which results are given for `CCC[C@H](NC(=O)[C@@H]1[C@H]2CCC[C@H]2CN1C(=O)[C@@H](NC(=O)[C@@H](NC(=O)c1cnccn1)C1CCCCC1)C(C)(C)C)C(=O)C(=O)NC1CC1` [VX-950]?
**A.** amelioration of steatosis (Oil Red O staining) [1]: effective at ameliorating steatosis; also recorded: ameliorated; protection from liver injury (gross appearance and H&E liver pathology) [2]: protects mice from Liver injury; effect on Mutant HCV protease activity (SEAP in serum) [3]: No effect
